Test results as given in article PMC9578474, “In vitro and in silico β-lactamase inhibitory properties and phytochemical profile of Ocimum basilicum cultivated in central delta of Egypt” (Pharmaceutical Biology, 2022).

System: T1, CTX-M β-lactamase (ESBL)
T1 construct: gene blaCTX-M
Experiment: nitrocefin hydrolysis colorimetric assay (kit MAK222) with cell-free lysate of ESBL-producing E. coli
Type: biochemical

Compound | Value methyl cinnamate | Value clavulanic acid
COC(=O)/C=C/c1ccccc1 [Methyl cinnamate] | 11.6008 µg/mL | 
O=C(O)[C@H]1/C(=C/CO)O[C@@H]2CC(=O)N21 [clavulanic acid] |  | 8.1223 µg/mL
